Laboratory results from patent publication US4841051A, “Phenylpiperazine derivatives” (Nippon Kayaku Kabushiki Kaisha, priority 1985, dated 1989).

What was measured:
[1] = target: T1, isolated vas deferens of a rat (Rattus norvegicus, UniProt P43140); assay: Action on isolated vas deferens of a rat (antagonism against noradrenaline); parameters: species or system SD male rat; settings: 3 minutes pretreatment, 32° C., read-out: pA2 (converted)
T1 construct: The vas deferens was isolated from SD male rats and cut into strips about 20 mm long; from tissue; host or cells: vas deferens of SD male rats
T1 sequence (P43140 1-466): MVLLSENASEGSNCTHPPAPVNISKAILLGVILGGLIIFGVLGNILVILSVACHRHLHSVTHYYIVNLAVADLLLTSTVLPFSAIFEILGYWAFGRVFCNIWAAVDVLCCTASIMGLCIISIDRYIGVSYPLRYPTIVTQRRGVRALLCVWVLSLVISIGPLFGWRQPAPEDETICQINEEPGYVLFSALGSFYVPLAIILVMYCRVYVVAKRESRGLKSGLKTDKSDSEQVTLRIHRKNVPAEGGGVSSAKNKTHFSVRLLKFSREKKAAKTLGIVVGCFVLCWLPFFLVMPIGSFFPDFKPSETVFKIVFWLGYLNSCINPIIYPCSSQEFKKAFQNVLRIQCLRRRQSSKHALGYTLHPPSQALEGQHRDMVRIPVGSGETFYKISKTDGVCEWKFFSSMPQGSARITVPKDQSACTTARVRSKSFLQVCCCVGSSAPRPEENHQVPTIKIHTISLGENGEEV
Experimental: The vas deferens was isolated from SD male rats and cut into strips about 20 mm long. The both ends of the strip were bounded with two threads respectively. The thread attached to one end of the strips was fixed in a 10-ml organ bath and the thread attached to other end was connected to an isotonic transducer. The bath was filled with Tyrode's solution of 32° C. comprising a solution of 8.0 g of NaCl, 0.2 g of KCl, 0.2 g of CaCl2, 0.1 g of MgCl2, 0.05 g of NaH2 PO4, 1.0 g of NaHCO3 and 1.0 g of glucose in 1 l of deionized water. A gas mixture comprising 95% of oxygen and 5% of carbon dioxide was bubbled into the bath. Resting tension of 0.5 g was loaded. Noradrenaline was treated accumulatively in the bath to obtain a consistent dose-response curve. After the pretreatment of the preparation with a sample compound for 3 minutes, another dose-response curve of noradrenaline was obtained to determine the activities of the compound. The strength of antagonism against noradrenaline was determined from these dose-response curves in terms of pA2 value.

SHR rat = assay: Hypotensive activity, SHR rat; format: in vivo; settings: 3 μg/kg, injected into femoral vein, anesthetized SHR rat
Experimental: (§1) The experiment was carried out using an SHR or SD male rat under anesthesia. The blood pressure was measured by inserting a polyethylene tube (a product of Clay Adams Co., Ltd.: PE-50) into its carotid arteries and using a pressure transducer (a product of Century Technology Company: CP-01) and continuously recorded on a recorder (a product of Nippon Koden Co., Ltd.). Sample compounds were each injected by a polyethylene tube (a product of Clay Adams Co., Ltd.: PE-10) inserted into the femoral vein of the rat in an amount of 3 μg/kg for an SHR rat or 10 μg/kg for an SD rat to examine the maximum hypotensive effect on systolic pressure.

[2] = Acute toxicity, intraperitoneal; settings: mouse, in vivo, ip, ICR male mice, up-and-down method or van der Welden method
Experimental: The acute toxicity due to intraperitoneal administration of a sample compound was examined by using ICR male mice (CRJ-ICR: weight of 29.5 to 52.3 g). Each sample compound was administered to from ten to thirty mice. The mice were observed until the symptom got well again. The LD50 values were determined by the up-and-down method or by van der Welden method.

SD rat = assay: Hypotensive activity, SD rat; format: in vivo, SD male rat; settings: 10 μg/kg, injected into femoral vein, anesthetized SD rat
Experimental: as §1

α1 -receptor = assay: α1 -blocking activity (inhibition of blood pressure increase due to phenylephrine); format: in vivo; settings: 10 μg/kg, femoral vein; phenylephrine 2 μg/kg i.v.; anesthetized SD male rat
Experimental: The blood pressure (a) of an SD male rat of 7 to 8 weeks of age was measured and 2 μg/kg of phenylephrine was administered to the rat by intravenous injection. Then the maximum response of blood pressure (b) was measured. 10 μg/kg of a sample compound was administered to the rats, followed by the intravenous injection of 2 μg/kg of phenylephrine. Then, the maximum response of blood pressure (c) was measured. The depression (d) of blood pressure increased due to phenylephrine was calculated by the following equation: [formula]
The animal was anesthetized by intraperitoneal administration of 40 mg/kg of nembutal and the anesthetic depth was kept by intravenous drip infusion of 15 mg/kg/hr of pentobarbital sodium. The blood pressure was measured by inserting a polyethylene tube (a product of Clay Adams: PE-50) and using a transducer (a product of Century Technology Company: CP-01) and continuously recorded on a pen oscillograph (a product of Nippon Koden Co., Ltd. WI-6416). Each sample compound was injected by a polyethylene tube (a product of Clay Adams Co., Ltd.: PE-10) inserted into the femoral vein.

Row | Structure (SMILES) | Kb [1] | maximum hypotensive effect on systolic pressure, SHR rat (SHR rat) | LD50 [2] | maximum hypotensive effect on systolic pressure, SD rat (SD rat) | Percentage of inhibition of blood pressure increase (α1 -receptor)
1 | CCOc1ccccc1N1CCN(CCCCn2c(=O)n(-c3ccccc3)c(=O)c3c(C)cc(C)nc32)CC1 [Compound 10, 3-Phenyl-5,7-dimethyl-1-[4-[4-(2-ethoxyphenyl)-1-piperazinyl]butyl]pyrido[2,3-d]pyrimidine-2,4(1H,3H)-dione] | 7.94 nM | ++ (pressure drop of 11 to 20 mmHg) | 328 mg/kg |  | 
2 | CCOc1ccccc1N1CCN(CCCCn2cnc3ccccc3c2=O)CC1 [Compound 5, 3-{4-[4-(2-Ethoxyphenyl)-1-piperazinyl]butyl}-4(3H)-quinazolone] | 0.398 nM | +++ (pressure drop of 21 to 30 mmHg) | 150 mg/kg | 57.5 mmHg | 89.6%
3 | CCOc1ccccc1N1CCN(CCn2cnc3ccccc3c2=O)CC1 [Compound 1, 3-[2-[4-(2-Ethoxyphenyl)-1-piperazinyl]-ethyl]-4(3H)-quinazolone] | 0.501 nM | +++ (pressure drop of 21 to 30 mmHg) | 400 mg/kg |  | 
4 | CCOc1ccccc1N1CCN(CCCCn2c(C)nc3nc(C)cc(C)c3c2=O)CC1 [Compound 7] | 5.01 nM | ++ (pressure drop of 11 to 20 mmHg) | 137 mg/kg |  | 
5 | CCOc1ccccc1N1CCN(CCn2c(C)nc3nc(C)cc(C)c3c2=O)CC1 [Compound 8] | 6.31 nM | ++ (pressure drop of 11 to 20 mmHg) | 207 mg/kg |  | 
6 | CCOc1ccccc1N1CCN(CCCn2c(C)nc3nc(C)cc(C)c3c2=O)CC1 [Compound 6, 2,5,7-Trimethyl-3-[3-[4-(2-ethoxyphenyl)-1-piperazinyl]-propyl]pyrido[2,3-d]pyrimidin-4(3H)-one] | 2.51 nM | ++ (pressure drop of 11 to 20 mmHg) | 128 mg/kg |  | 
7 | CCOc1ccccc1N1CCN(CCn2c(C)nc3ccccc3c2=O)CC1 [Compound 3] | 3.16 nM | +++ (pressure drop of 21 to 30 mmHg) | 119 mg/kg |  | 
8 | CCOc1ccccc1N1CCN(CCCn2c(C)nc3ccccc3c2=O)CC1 [Compound 4] | 10 nM | ++ (pressure drop of 11 to 20 mmHg) | 152 mg/kg |  | 
